Results from patent publication US5140040A, “1-aminomethyl-1,2,3,4-tetrahydronaphthalenes” (Abbott Laboratories, priority 1991, dated 1992).
Where a name gives a salt, the structure may show the parent alone.

Target: alpha-2-receptor
Experiment: Radioligand binding, alpha-2 adrenoceptor, rat cerebral cortices, [^3 H]-rauwolscine
Details: for Ki: rat cerebral cortices, [^3 H]-rauwolscine; for alpha-2 - Selectivity Ki alpha-1/Ki alpha 2: ratio of Ki alpha-1 to Ki alpha-2
Experimental: The compounds were assessed for alpha-adrenergic receptor subtype selectivity by use of radioligand binding techniques as described previously (DeBernardis et.al. J. Med. Chem. 28, 1398 (1985)).

Row | SMILES | Ki [nM] | alpha-2 - Selectivity Ki alpha-1/Ki alpha 2
1 | COc1ccc2c(c1)CCC2CN1CCC(c2cccc(F)c2)C1 (stereo not shown) [Example 153, 5-Methoxy-1-(3-(m-fluorophenyl)pyrrolidino-1-methyl) indane hydrochloride] | 8.6 | 7
2 | COc1ccc2c(c1)CCCC2CN(C)CCc1cccc(O)c1 (stereo not shown) [Example 83, 1-((N-Methylamino)methyl-N-(2-(m-hydroxyphenyl)ethyl))-6-methoxy tetralin hydrochloride] | 8 | 119
3 | CN(CCc1ccccc1)CC1CCCc2cc(N)ccc21 (stereo not shown) [Example 114, 1-((N-Methylaminomethyl-N-(2-phenylethyl))-6-aminotetralindihydrochloride] | 5.7 | 127
4 | CN(CCc1cccc(F)c1)CC1CCCc2ccccc21 (stereo not shown) [Example 70, 1-((N-Methylamino)methyl-N-(2-(m-fluorophenyl)ethyl))-tetralin hydrochloride] | 5 | 105
5 | COc1cccc2c1CCCC2CN1CCC(c2cccs2)C1 (stereo not shown) [Example 146, 5-Methoxy1-(3-(2-thienyl)pyrrolidino-1-methyl) tetralin hydrochloride] | 4.9 | 35
6 | COc1ccc2c(c1)CCCC2CN(C)CCc1cccc(N)c1 (stereo not shown) [Example 67, 1 ((N-Methylamino)methyl-N-(2-(maminophenyl)ethyl))-6-methoxy tetralin dihydrochloride] | 6 | 195
7 | CCCN(CCc1cccs1)CC1CCCc2cc(OC)ccc21 (stereo not shown) [Example 58, 1-((N propylamino)methyl)-N-(2-(2-thienyl)ethyl))-6-methoxy tetralin hydrochloride] | 18 | 102
8 | COc1ccc2c(c1)CCCC2CN(C)CCC1CCCC1 (stereo not shown) [Example 6f, 1-((N-methylamino)methyl N-(2-(cyclopentyl)ethyl)) 6-methoxy tetralin hydrochloride] | 6.5 | 332
9 | COc1cc2c(cc1C)C(CN(C)CCc1ccco1)CCC2 (stereo not shown) [Example 128, 1-((N-Methylamino)methyl-N-(2-(2-furyl)ethyl))-6-methoxy 7-methyl tetralin hydrochloride] | 8 | 107
10 | Nc1ccc2c(c1)CCCC2CN1CCC(c2ccccc2)C1 (stereo not shown) [Example 156, 6-Amino-1-(3-phenylpyrrolidino-1-methyl) tetralin dihydrochloride] | 6 | 21
11 | COc1ccc(C)c2c1CCCC2CN(C)CCc1cccs1 (stereo not shown) [Example 36, 1-(N-Methylamino)methyl-N-(2-(2-thienyl)ethyl))-5-methoxy-8-methyl tetralin hydrochloride] | 6.9 | 95
12 | Fc1ccc2c(c1)CCCC2CN1CCC(c2ccccc2)C1 (stereo not shown) [Example 148, 6-Fluoro-1-(3-phenylpyrrolidino-1-methyl) tetralin methanesulfonate] | 6.5 | 19
13 | CCN(CCc1cccc(F)c1)CC1CCCc2cc(OC)ccc21 (stereo not shown) [Example 42, 1-((N-Ethylamino)methyl-N-(2-(m-fluorophenyl)ethyl))-6-methoxy tetralin hydrochloride] | 6.6 | 159
14 | COc1ccc2c(c1)CCCC2CN(C)CCc1cccn1C (stereo not shown) [Example 12, 1-((N-Methylamino)methyl-N-(2-(N-methyl2-pyrrolyl)-ethyl))-6-methoxy tetralin fumarate] | 5 | 242
15 | CCN(CCc1ccco1)CC1CCCc2cc(OC)ccc21 (stereo not shown) [Example 43, 1-((N-Ethylamino)methyl-N-(2-(2-furyl)ethyl))-6-methoxy tetralin hydrochloride] | 6 | 233
16 | CCN(CCc1cccs1)CC1CCCc2c1ccc1c2OCCO1 (stereo not shown) [Example 168, 1-((N-Ethylamino)methyl N-(2-(2-thienyl)ethyl))-5,6-ethylenedioxy tetralin hydrochloride] | 6.6 | 125
17 | CN(CCc1cccc(N)c1)CC1CCCc2cc(O)ccc21 (stereo not shown) [Example 68, 1-((N-Methylamino)methyl N-(2-(m-aminophenyl)ethyl))-6-hydroxy tetralin dihydrobromide] | 6 | 196

Further compounds by falling Ki, results first:

Row | Ki [nM] | alpha-2 - Selectivity Ki alpha-1/Ki alpha 2 | SMILES
18 | 4.8 | 183 | COc1cc2c(cc1F)C(CN(C)CCc1ccco1)CCC2 (stereo not shown) [Example 141, 1-((N-methylamino)methyl-N-(2-(2-furyl)ethyl))-6-methoxy-7-fluoro tetralin methanesulfonate]
19 | 4.2 | 85 | CN(CCc1cccc(F)c1)CC1CCCc2c1ccc1c2OCCO1 (stereo not shown) [Example 167, 1-((N-Methylamino)methyl N-(2-m-fluorophenethyl))-5,6-ethylenedioxy tetralin methanesulfonate]
20 | 4 | 124 | CN(CCc1cccc(O)c1)CC1CCCc2cc(O)ccc21 (stereo not shown) [Example 82, 1-((N-Methylamino)methyl-N-(2-(m-hydroxyphenyl)ethyl))-6-hydroxy tetralin hydrochloride]
21 | 3.7 | 258 | CCN(CCc1cccs1)CC1CCCc2c1ccc1c2OCO1 (stereo not shown) [Example 164, 1-(N-Ethylamino)methyl-N-(2-(2-thienyl)ethyl))-5,6-methylenedioxy tetralin hydrochloride]
22 | 3.7 | 174 | COc1ccc2c(c1)CCC2CN(C)CCc1cccs1 (stereo not shown) [Example 37, 1-((N-Methylamino)methyl-N-(2-(2-thienyl)ethyl))-5-methoxy indane hydrochloride]
23 | 3.6 | 55 | CN(CCc1cccs1)CC1CCCc2c(Cl)cccc21 (stereo not shown) [Example 129, 1-((N-Methylamino)methyl-N-(2-(2-thieny)ethyl))-5-chloro tetralin hydrochloride]
24 | 3.5 | 430 | COc1ccc2c(c1)CCCC2CN(C)CCC1CCCS1 (stereo not shown) [Example 6h, 1-((N-methylamino)methyl-N-(2-(2-tetrahydrothienyl)ethyl))-6-methoxy tetralin hydrochloride]
25 | 3 | 165 | COc1ccc2c(c1OC)CCCC2CN(C)CCc1cccs1 (stereo not shown) [Example 86, 1-((N-Methylamino)methyl-N-(2-(2-thienyl)ethyl))-5,6-dimethoxy tetralin hydrochloride]
26 | 3 | 177 | CN(CCc1cccs1)CC1CCCc2c1ccc(O)c2I (stereo not shown) [Example 115, 1-((N-Methylamino)methyl-N-(2-(2-thienyl)ethyl))-5-iodo-6-hydroxy tetralin hydrochloride]
27 | 2.5 | 71 | COc1ccc2c(c1)CCC2CN1CCC(c2cccs2)C1 (stereo not shown) [Example 151, 5-Methoxy1-(3-(2-thienyl)pyrrolidino-1-methyl) indane hydrochloride]
28 | 2 | 263 | COc1ccc2c(c1)C(CN(C)CCc1cccs1)CCC2 (stereo not shown) [Example 27, 1-((N-Methylamino)methyl-N-(2-(2-thienyl)ethyl))-7-methoxy tetralin hydrochloride]
29 | 2 | 158 | CN(CCc1ccccc1)CC1CCCc2ccccc21 (stereo not shown) [Example 88, 1-(N-Methylamino)methyl-N-(2-phenethyl)) tetralin hydrochloride]
30 | 1.7 | 262 | CN(CCc1cccs1)CC1CCCc2c1ccc1c2OCO1 (stereo not shown) [Example 23, 1-((N-Methylamino)methyl-N-(2-(2-thienyl)ethyl))-5,6-methylenedioxy tetralin hydrochloride]
31 | 1.6 | 353 | CN(CCc1cccs1)CC1CCCc2cc(O)ccc21 (stereo not shown) [Example 7, 1-((N-Methylamino)methyl-N(2-(2-thienyl)ethyl))-6-hydroxy tetralin hydrochloride]
32 | 1.6 | 278 | CN(CCc1cccs1)CC1CCCc2c1ccc(O)c2O (stereo not shown) [Example 87, 1-((N-Methylamino)methyl-N-(2-(2-thienyl)ethyl))-5,6-dihydroxy tetralin hydrochloride]
33 | 1.5 | 333 | COc1ccc2c(c1)CCCC2CN(C)CCc1ccsc1 (stereo not shown) [Example 6d, 1--((N-methylamino)methyl N-(2-(3-thienyl)ethyl))-6-methoxy tetralin hydrochloride]
34 | 1.5 | 173 | CN(CCc1cccc(F)c1)CC1CCCc2c1ccc(O)c2O (stereo not shown) [Example 85, 1-((N-Methylamino)methyl-N-(2-(m-fluorophenyl)ethyl))-5,6-dihydroxy tetralin hydrochloride]
35 | 1.3 | 93 | CN(c1ccc2c(c1)CCCC2CN1CCC(c2ccccc2)C1)S(C)(=O)=O (stereo not shown) [Example 193, 6-(N-methylmethylsulfonamido)-1-(3-(phenylpyrrolidino-1-methyl)tetralin hydrochloride]
36 | 1.3 | 535 | CN(CCc1cccs1)CC1CCCc2ccccc21 (stereo not shown) [Example 22, 1-((N-Methylamino)methyl-N-(2-(2-thienyl)ethyl)) tetralin hydrochloride]
37 | 1 | 95 | COc1ccc2c(c1)CCCC2CN1CCC(c2ccccc2)C1 (stereo not shown) [Example 121, 6-Methoxy-1-(3-phenylpyrrolidino-1-methyl) tetralin hydrochloride]
38 | 0.6 | 292 | COc1cc2c(c(OC)c1)C(CN(C)CCc1cccs1)CCC2 (stereo not shown) [Example 26, 1-((N-Methylamino)methyl-N-(2-(2-thienyl)ethyl))-6,8-dimethoxy tetralin hydrochloride]
